Measured values: the kinase profiling compilation of Christmann-Franck et al. (2016)
“And” between values parts separate entries of the source, which are not always exact repeats. Equal entries are not always repeated.

Legend:
Test in all cases: radiometric filter-binding kinase assay, Kinase HotSpot
Conditions in all cases: compound 0.5 µM; ATP 10 µM
SGK2 (human) = SGK2 (human) (UniProt Q9HBY8)
PRKG1 (human) = PRKG1 (human) (UniProt Q13976)
MARK4 (human) = MARK4 (human) (UniProt Q96L34)
PRKD1 (human) = PRKD1 (human) (UniProt Q15139)
LYN (human) = LYN (human) (UniProt P07948)
Sequence of LYN (human) (P07948 whole entry, looked up): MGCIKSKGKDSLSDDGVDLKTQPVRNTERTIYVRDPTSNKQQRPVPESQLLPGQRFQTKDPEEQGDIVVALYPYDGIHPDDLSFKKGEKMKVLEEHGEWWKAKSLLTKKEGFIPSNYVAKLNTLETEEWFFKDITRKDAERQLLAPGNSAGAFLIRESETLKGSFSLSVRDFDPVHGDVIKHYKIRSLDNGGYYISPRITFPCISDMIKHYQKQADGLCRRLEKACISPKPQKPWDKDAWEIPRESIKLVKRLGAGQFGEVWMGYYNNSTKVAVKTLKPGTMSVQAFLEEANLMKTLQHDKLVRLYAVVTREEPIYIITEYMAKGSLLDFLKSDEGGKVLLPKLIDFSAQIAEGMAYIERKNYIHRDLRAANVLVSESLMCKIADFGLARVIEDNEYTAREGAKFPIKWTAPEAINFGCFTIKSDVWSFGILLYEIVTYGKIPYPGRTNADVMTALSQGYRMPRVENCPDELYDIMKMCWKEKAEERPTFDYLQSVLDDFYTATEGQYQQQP

ACVR1B (human) = ACVR1B (human) (UniProt P36896)
CSF1R (human) = CSF1R (human) (UniProt P07333)
MAPK3 (human) = MAPK3 (human) (UniProt P27361)
MAP3K8 (human) = MAP3K8 (human) (UniProt P41279)
CLK4 (human) = CLK4 (human) (UniProt Q9HAZ1)
WEE1 (human) = WEE1 (human) (UniProt P30291)
SGK3 (human) = SGK3 (human) (UniProt Q96BR1)
RPS6KA1 KD1 KD2 (human) = RPS6KA1 KD1 KD2 (human) (UniProt Q15418)
LCK (human) = LCK (human) (UniProt P06239)
Sequence of LCK (human) (P06239 whole entry, looked up): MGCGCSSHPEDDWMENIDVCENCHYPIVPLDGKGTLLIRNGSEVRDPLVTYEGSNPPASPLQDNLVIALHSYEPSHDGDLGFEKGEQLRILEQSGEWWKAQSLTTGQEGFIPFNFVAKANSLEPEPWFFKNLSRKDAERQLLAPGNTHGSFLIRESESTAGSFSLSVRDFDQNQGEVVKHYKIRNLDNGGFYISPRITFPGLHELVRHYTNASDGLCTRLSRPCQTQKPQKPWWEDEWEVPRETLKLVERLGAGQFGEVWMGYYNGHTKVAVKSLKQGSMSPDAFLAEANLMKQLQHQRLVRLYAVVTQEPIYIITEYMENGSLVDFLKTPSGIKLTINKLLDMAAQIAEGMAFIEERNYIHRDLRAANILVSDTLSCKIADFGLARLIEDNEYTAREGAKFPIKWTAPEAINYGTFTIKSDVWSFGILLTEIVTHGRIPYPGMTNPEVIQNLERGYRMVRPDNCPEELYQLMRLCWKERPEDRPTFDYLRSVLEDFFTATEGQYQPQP

ERBB2 (human) = ERBB2 (human) (UniProt P04626)
Sequence of ERBB2 (human) (P04626 whole entry, looked up): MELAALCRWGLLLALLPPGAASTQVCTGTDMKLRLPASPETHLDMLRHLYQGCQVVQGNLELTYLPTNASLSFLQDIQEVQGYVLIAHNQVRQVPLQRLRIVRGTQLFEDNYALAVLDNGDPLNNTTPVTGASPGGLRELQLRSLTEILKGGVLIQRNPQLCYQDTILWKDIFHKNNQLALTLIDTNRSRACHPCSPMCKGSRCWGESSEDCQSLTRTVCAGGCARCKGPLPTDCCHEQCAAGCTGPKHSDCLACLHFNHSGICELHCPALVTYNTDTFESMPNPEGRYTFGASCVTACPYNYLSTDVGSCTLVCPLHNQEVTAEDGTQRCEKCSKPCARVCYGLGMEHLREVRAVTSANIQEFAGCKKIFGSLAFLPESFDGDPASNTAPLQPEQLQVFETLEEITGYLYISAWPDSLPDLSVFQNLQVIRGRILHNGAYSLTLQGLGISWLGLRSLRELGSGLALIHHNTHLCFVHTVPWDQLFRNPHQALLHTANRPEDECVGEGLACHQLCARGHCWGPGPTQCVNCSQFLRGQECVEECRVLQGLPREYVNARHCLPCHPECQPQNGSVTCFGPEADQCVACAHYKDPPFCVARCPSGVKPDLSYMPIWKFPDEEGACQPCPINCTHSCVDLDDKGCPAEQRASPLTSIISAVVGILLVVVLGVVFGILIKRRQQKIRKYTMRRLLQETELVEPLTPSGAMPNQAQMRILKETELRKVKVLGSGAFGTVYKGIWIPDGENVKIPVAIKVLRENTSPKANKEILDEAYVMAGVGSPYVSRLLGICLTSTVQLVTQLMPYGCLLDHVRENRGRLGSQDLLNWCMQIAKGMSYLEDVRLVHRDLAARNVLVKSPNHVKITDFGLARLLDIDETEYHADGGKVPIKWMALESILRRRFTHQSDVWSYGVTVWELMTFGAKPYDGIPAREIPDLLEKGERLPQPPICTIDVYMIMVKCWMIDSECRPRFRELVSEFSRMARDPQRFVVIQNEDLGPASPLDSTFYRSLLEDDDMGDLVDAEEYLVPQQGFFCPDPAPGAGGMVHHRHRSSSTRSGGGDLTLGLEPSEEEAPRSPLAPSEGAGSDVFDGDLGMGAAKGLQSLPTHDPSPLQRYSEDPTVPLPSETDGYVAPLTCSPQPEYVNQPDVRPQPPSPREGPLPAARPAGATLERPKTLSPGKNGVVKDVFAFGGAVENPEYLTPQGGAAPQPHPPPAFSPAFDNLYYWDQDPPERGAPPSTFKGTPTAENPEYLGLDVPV

STK4 (human) = STK4 (human) (UniProt Q13043)
TEC (human) = TEC (human) (UniProt P42680)
AKT3 (human) = AKT3 (human) (UniProt Q9Y243)
MST4 (human) = MST4 (human) (UniProt Q9P289)
PLK1 (human) = PLK1 (human) (UniProt P53350)
CSNK1D (human) = CSNK1D (human) (UniProt P48730)
CDK5 CDK5R1 p35 (human) = CDK5 CDK5R1 p35 (human) (UniProt Q00535+Q15078)
OXSR1 (human) = OXSR1 (human) (UniProt O95747)
RPS6KA6 KD1 KD2 (human) = RPS6KA6 KD1 KD2 (human) (UniProt Q9UK32)
CAMKK1 (human) = CAMKK1 (human) (UniProt Q8N5S9)
MAPK11 (human) = MAPK11 (human) (UniProt Q15759)
WNK3 (human) = WNK3 (human) (UniProt Q9BYP7)
PRKCH (human) = PRKCH (human) (UniProt P24723)
EPHB4 (human) = EPHB4 (human) (UniProt P54760)
Sequence of EPHB4 (human) (P54760 whole entry, looked up): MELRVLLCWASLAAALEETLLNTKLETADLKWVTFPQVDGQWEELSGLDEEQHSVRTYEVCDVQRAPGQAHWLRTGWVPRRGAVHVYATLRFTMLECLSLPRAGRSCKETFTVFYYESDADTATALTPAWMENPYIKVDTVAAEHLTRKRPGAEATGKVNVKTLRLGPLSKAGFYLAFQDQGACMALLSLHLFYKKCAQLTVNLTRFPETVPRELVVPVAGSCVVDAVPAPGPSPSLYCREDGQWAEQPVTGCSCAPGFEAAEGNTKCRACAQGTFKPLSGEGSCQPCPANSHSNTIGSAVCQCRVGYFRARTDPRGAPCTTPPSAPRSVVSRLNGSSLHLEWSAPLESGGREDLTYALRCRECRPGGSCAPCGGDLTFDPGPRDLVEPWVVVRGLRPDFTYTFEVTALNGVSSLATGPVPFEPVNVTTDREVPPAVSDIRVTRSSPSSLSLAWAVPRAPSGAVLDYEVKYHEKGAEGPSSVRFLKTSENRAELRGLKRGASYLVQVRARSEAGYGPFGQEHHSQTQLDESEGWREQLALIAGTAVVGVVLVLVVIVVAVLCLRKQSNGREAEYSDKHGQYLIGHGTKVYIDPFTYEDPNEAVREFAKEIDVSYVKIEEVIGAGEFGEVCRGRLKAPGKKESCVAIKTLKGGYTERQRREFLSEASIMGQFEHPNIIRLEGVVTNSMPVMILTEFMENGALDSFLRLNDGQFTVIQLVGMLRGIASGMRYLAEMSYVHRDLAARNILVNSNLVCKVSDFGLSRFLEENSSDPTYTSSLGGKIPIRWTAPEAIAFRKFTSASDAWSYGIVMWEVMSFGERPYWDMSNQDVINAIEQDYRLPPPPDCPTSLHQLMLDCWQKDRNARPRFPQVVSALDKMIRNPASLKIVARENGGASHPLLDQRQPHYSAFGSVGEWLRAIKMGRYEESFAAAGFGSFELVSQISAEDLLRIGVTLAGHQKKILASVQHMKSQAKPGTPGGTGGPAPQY

PTK2B (human) = PTK2B (human) (UniProt Q14289)
MARK3 (human) = MARK3 (human) (UniProt P27448)
FGFR3 (human) = FGFR3 (human) (UniProt P22607)
Sequence of FGFR3 (human) (P22607 whole entry, looked up): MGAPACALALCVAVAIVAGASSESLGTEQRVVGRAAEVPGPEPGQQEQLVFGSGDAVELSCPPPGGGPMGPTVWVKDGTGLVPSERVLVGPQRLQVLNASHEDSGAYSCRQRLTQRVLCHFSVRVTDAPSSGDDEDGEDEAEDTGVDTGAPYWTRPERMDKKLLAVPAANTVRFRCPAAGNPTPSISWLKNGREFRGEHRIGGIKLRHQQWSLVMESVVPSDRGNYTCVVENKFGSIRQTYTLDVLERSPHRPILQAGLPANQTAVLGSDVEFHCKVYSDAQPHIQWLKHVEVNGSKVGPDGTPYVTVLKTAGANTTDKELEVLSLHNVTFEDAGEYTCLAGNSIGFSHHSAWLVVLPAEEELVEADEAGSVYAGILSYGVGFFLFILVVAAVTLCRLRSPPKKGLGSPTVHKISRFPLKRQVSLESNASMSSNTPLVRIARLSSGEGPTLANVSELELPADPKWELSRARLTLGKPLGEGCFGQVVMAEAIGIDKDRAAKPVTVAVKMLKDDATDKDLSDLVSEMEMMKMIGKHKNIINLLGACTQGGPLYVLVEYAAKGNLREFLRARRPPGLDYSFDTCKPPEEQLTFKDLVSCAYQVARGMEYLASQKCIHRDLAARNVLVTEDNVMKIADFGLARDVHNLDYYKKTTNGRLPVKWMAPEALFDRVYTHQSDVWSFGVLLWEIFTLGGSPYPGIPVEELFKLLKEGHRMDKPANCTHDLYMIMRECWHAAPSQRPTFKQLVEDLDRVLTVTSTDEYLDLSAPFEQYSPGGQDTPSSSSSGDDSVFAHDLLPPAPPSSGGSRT

ITK (human) = ITK (human) (UniProt Q08881)
STK16 (human) = STK16 (human) (UniProt O75716)
PRKCZ (human) = PRKCZ (human) (UniProt Q05513)
Sequence of PRKCZ (human) (Q05513 whole entry, looked up): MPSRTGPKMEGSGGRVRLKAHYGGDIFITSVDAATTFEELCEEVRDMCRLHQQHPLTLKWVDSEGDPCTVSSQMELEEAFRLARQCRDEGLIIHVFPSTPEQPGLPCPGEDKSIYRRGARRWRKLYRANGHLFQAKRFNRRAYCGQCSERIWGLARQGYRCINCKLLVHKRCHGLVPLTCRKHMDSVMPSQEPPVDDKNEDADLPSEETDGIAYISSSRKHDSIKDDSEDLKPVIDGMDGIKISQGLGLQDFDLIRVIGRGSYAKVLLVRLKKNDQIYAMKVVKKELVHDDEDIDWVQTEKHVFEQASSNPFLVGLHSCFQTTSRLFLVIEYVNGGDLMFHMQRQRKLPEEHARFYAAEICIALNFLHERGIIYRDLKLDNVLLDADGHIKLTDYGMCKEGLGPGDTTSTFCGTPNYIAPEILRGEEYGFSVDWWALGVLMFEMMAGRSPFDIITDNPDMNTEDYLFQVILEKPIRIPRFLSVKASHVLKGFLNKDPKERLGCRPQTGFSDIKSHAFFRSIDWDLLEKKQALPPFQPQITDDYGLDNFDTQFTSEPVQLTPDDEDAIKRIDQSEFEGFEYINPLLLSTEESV

FGFR2 (human) = FGFR2 (human) (UniProt P21802)
SIK2 (human) = SIK2 (human) (UniProt Q9H0K1)
BMX (human) = BMX (human) (UniProt P51813)
ROCK2 (human) = ROCK2 (human) (UniProt O75116)
FGFR1 (human) = FGFR1 (human) (UniProt P11362)
PHKG1 (human) = PHKG1 (human) (UniProt Q16816)
Sequence of PHKG1 (human) (Q16816 whole entry, looked up): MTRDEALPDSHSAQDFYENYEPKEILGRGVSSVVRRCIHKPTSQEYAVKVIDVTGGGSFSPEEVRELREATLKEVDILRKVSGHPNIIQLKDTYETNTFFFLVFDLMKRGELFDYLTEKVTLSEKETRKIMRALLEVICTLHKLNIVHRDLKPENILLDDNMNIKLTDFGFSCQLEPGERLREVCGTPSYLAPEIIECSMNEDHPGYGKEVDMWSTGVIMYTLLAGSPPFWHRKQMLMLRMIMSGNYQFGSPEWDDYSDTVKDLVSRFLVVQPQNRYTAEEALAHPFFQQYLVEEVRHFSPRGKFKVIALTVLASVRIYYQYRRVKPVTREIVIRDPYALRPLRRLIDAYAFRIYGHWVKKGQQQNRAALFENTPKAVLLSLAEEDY

DYRK1A (human) = DYRK1A (human) (UniProt Q13627)

In the case of O=C1Nc2ccc(Cl)cc2/C1=C/c1cc(Cl)c(O)c(Cl)c1, the residual activity (SGK2 (human)) is reported as 89.2%, the residual activity (PRKG1 (human)) is reported as 102% and 96.8% and the residual activity (MARK4 (human)) is reported as 78.4%. For the same molecule, the residual activity (PRKD1 (human)) was 91.5%, the residual activity (LYN (human)) was 81.6% and 87.5% and the residual activity (ACVR1B (human)) was 127%. It also gave a residual activity (CSF1R (human)) of 77.9%, a residual activity (MAPK3 (human)) of 88.2% and a residual activity (MAP3K8 (human)) of 93.1%. For the same molecule, the residual activity (CLK4 (human)) was 60.7%, the residual activity (WEE1 (human)) was 79.1% and the residual activity (SGK3 (human)) was 98.6%. The residual activity (RPS6KA1 KD1 KD2 (human)) was 48.4%, the residual activity (LCK (human)) was 88.2% and the residual activity (ERBB2 (human)) was 107%. The residual activity (STK4 (human)) was 32.5%, the residual activity (TEC (human)) was 109% and the residual activity (AKT3 (human)) was 96.9%. The residual activity (MST4 (human)) was 101%, the residual activity (PLK1 (human)) was 99.8% and the residual activity (CSNK1D (human)) was 89.6%. The residual activity (CDK5 CDK5R1 p35 (human)) was 94.5%, the residual activity (OXSR1 (human)) was 91.6% and the residual activity (RPS6KA6 KD1 KD2 (human)) was 78.5%. It also gave a residual activity (CAMKK1 (human)) of 52.5%, a residual activity (MAPK11 (human)) of 99.2% and a residual activity (WNK3 (human)) of 90.7%. For the same molecule, the residual activity (PRKCH (human)) was 90.8%, the residual activity (EPHB4 (human)) was 100% and the residual activity (PTK2B (human)) was 96.7%. It also gave a residual activity (MARK3 (human)) of 81.1%, a residual activity (FGFR3 (human)) of 94% and a residual activity (ITK (human)) of 91.8%. For the same molecule, the residual activity (STK16 (human)) was 90.2%, the residual activity (PRKCZ (human)) was 95.3% and the residual activity (FGFR2 (human)) was 92%. For the same molecule, the residual activity (SIK2 (human)) was 95%, the residual activity (BMX (human)) was 94.8% and the residual activity (ROCK2 (human)) was 90.6%. The residual activity (FGFR1 (human)) was 90.8%, the residual activity (PHKG1 (human)) was 86.4% and the residual activity (DYRK1A (human)) was 95.6%.
With COc1ccc2c(c[n+](C)c3c4cc5c(cc4ccc23)OCO5)c1OC the residual activity (SGK2 (human)) was 99.1%, the residual activity (PRKG1 (human)) was 97.6% and 98.8% and the residual activity (MARK4 (human)) was 99.3%. The residual activity (PRKD1 (human)) was 100%, the residual activity (LYN (human)) was 95.4% and 100% and the residual activity (ACVR1B (human)) was 110%. It also gave a residual activity (CSF1R (human)) of 99%, a residual activity (MAPK3 (human)) of 108% and a residual activity (MAP3K8 (human)) of 91.3%. The residual activity (CLK4 (human)) was 89.9%, the residual activity (WEE1 (human)) was 108% and the residual activity (SGK3 (human)) was 96%. It also gave a residual activity (RPS6KA1 KD1 KD2 (human)) of 104%, a residual activity (LCK (human)) of 89% and a residual activity (ERBB2 (human)) of 101%. For the same molecule, the residual activity (STK4 (human)) was 98.9%, the residual activity (TEC (human)) was 116% and the residual activity (AKT3 (human)) was 103%. The residual activity (MST4 (human)) was 89.4%, the residual activity (PLK1 (human)) was 93.6% and the residual activity (CSNK1D (human)) was 92.9%. It also gave a residual activity (CDK5 CDK5R1 p35 (human)) of 95.7%, a residual activity (OXSR1 (human)) of 94.8% and a residual activity (RPS6KA6 KD1 KD2 (human)) of 91.1%. The residual activity (CAMKK1 (human)) was 101%, the residual activity (MAPK11 (human)) was 91.6% and the residual activity (WNK3 (human)) was 101%. It also gave a residual activity (PRKCH (human)) of 101%, a residual activity (EPHB4 (human)) of 91.7% and a residual activity (PTK2B (human)) of 92.3%. The residual activity (MARK3 (human)) was 98.7%, the residual activity (FGFR3 (human)) was 99.1% and the residual activity (ITK (human)) was 99.2%. It also gave a residual activity (STK16 (human)) of 102%, a residual activity (PRKCZ (human)) of 97.7% and a residual activity (FGFR2 (human)) of 101%. For the same molecule, the residual activity (SIK2 (human)) was 95.5%, the residual activity (BMX (human)) was 104% and the residual activity (ROCK2 (human)) was 92.5%. The residual activity (FGFR1 (human)) was 96%, the residual activity (PHKG1 (human)) was 90.4% and the residual activity (DYRK1A (human)) was 103%.
With CNc1cc2c(Nc3cccc(Br)c3)ncnc2cn1 the residual activity (SGK2 (human)) was 96.6%, the residual activity (PRKG1 (human)) was 107% and 92.7% and the residual activity (MARK4 (human)) was 84.5%. For the same molecule, the residual activity (PRKD1 (human)) was 92.3%, the residual activity (LYN (human)) was 63.9% and 81.9% and the residual activity (ACVR1B (human)) was 97.7%. For the same molecule, the residual activity (CSF1R (human)) was 100%, the residual activity (MAPK3 (human)) was 97.3% and the residual activity (MAP3K8 (human)) was 90.2%. For the same molecule, the residual activity (CLK4 (human)) was 60.9%, the residual activity (WEE1 (human)) was 75.9% and the residual activity (SGK3 (human)) was 96.8%. The residual activity (RPS6KA1 KD1 KD2 (human)) was 90.9%, the residual activity (LCK (human)) was 96.7% and the residual activity (ERBB2 (human)) was 28.9%. It also gave a residual activity (STK4 (human)) of 95.4%, a residual activity (TEC (human)) of 109% and a residual activity (AKT3 (human)) of 103%. For the same molecule, the residual activity (MST4 (human)) was 109%, the residual activity (PLK1 (human)) was 93.5% and the residual activity (CSNK1D (human)) was 98.7%. It also gave a residual activity (CDK5 CDK5R1 p35 (human)) of 100%, a residual activity (OXSR1 (human)) of 88.3% and a residual activity (RPS6KA6 KD1 KD2 (human)) of 81.8%. For the same molecule, the residual activity (CAMKK1 (human)) was 92.6%, the residual activity (MAPK11 (human)) was 115% and the residual activity (WNK3 (human)) was 97.4%. The residual activity (PRKCH (human)) was 95.7%, the residual activity (EPHB4 (human)) was 99.6% and the residual activity (PTK2B (human)) was 94.5%. It also gave a residual activity (MARK3 (human)) of 82.2%, a residual activity (FGFR3 (human)) of 85.4% and a residual activity (ITK (human)) of 92.5%. It also gave a residual activity (STK16 (human)) of 98.6%, a residual activity (PRKCZ (human)) of 98.6% and a residual activity (FGFR2 (human)) of 96.3%. It also gave a residual activity (SIK2 (human)) of 98.3%, a residual activity (BMX (human)) of 93.9% and a residual activity (ROCK2 (human)) of 99.5%. The residual activity (FGFR1 (human)) was 96.5%, the residual activity (PHKG1 (human)) was 91.4% and the residual activity (DYRK1A (human)) was 95.6%.
